Drawing on PubChem BioAssay (NCI), this text covers TGI and GI50 for 12 compounds.

Some test systems named below: CAKI-1 renal; HOP-62 NSCLC; IGROV1 ovarian; SR leukemia; PC-3 prostate; MOLT-4 leukemia; UO-31 renal; A549 NSCLC; OVCAR-3 ovarian; OVCAR-4 ovarian.
Common to all, as to assay: NCI tumour cell line growth inhibition, 48 h

Values joined by “and” are separate entries in the source; they are usually repeats but may differ in a detail not shown here. Identical values can stand only once.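 These data come from cells grown in 96-well plates and exposed to compound for 48 hours at five concentrations. GI50: concentration for 50% inhibition of growth. TGI marks complete inhibition of growth.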 Some results are limits rather than exact numbers.

For the compound `O=C(/C=C/c1nnc2n(Cc3ccccc3)c(=O)c3c4c(sc3n12)CCCC4)c1ccccc1`, the TGI is greater than 100 µM in the assay with CAKI-1 renal; greater than 100 µM in the assay on HOP-62 NSCLC; greater than 100 µM in the assay with IGROV1 ovarian; 0.658 µM in the assay with SR leukemia; 4.44 µM with PC-3 prostate; 0.769 µM in the assay with MOLT-4 leukemia. The GI50 is greater than 100000 nM in the assay with IGROV1 ovarian; 52.2 nM and 217 nM in the assay with SR leukemia; 1420 nM in the assay with PC-3 prostate; 622 nM and 248 nM with MOLT-4 leukemia; 3060 nM in the assay with UO-31 renal.
For `CCCCN(CCCC)CC(C(=O)Nc1ccc([N+](=O)[O-])cc1[N+](=O)[O-])/C(C)=N\NC(=O)C[N+](C)(C)C` (centres undefined), the TGI in the assay with A549 NSCLC was greater than 100 µM; in the assay on CAKI-1 renal, greater than 100 µM; in the assay with HOP-62 NSCLC, greater than 100 µM; in the assay with IGROV1 ovarian, greater than 100 µM; with SR leukemia, 49.7 µM; in the assay on OVCAR-3 ovarian, greater than 100 µM. Also, the TGI in the assay with MOLT-4 leukemia, with OVCAR-4 ovarian and in the assay with UO-31 renal was greater than 100 µM each time.
With `NC(=O)CCc1ccccc1Oc1nccc(-c2c(-c3ccc(F)cc3)ncn2C2CCNCC2)n1`, the GI50 in the assay with A549 NSCLC, with CAKI-1 renal, in the assay with HOP-62 NSCLC, in the assay with IGROV1 ovarian, in the assay with OVCAR-3 ovarian and with PC-3 prostate was greater than 25000 nM in each case. The GI50 with MOLT-4 leukemia, in the assay with OVCAR-4 ovarian and in the assay on UO-31 renal was greater than 25000 nM in each case. Also, the TGI in the assay with A549 NSCLC, in the assay on CAKI-1 renal, in the assay on HOP-62 NSCLC, in the assay with IGROV1 ovarian, in the assay with OVCAR-3 ovarian and in the assay on PC-3 prostate was greater than 25 µM throughout. Also, the TGI with MOLT-4 leukemia, in the assay with OVCAR-4 ovarian and in the assay with UO-31 renal was greater than 25 µM each time.
Take `CC(=O)CC(=O)NC=O`: the TGI in the assay with A549 NSCLC, in the assay on CAKI-1 renal, in the assay with HOP-62 NSCLC, in the assay with IGROV1 ovarian, with SR leukemia and with OVCAR-3 ovarian was greater than 100 µM each time. Moreover, the TGI with MOLT-4 leukemia, with OVCAR-4 ovarian and in the assay on UO-31 renal was greater than 100 µM throughout.
For `Cc1ccc(NC(=O)/C(=N\NC(N)=S)C(C#N)c2ccccc2C)cc1C` (centres undefined), the TGI in the assay with A549 NSCLC, with CAKI-1 renal, with HOP-62 NSCLC, with IGROV1 ovarian, with SR leukemia and in the assay on OVCAR-3 ovarian was greater than 100 µM throughout. The TGI with MOLT-4 leukemia, in the assay on OVCAR-4 ovarian and with UO-31 renal was greater than 100 µM in each case.
For `C=CCC12CCC(=O)[C@@]1(C)CC=C(O)C2=O` (some centres undefined), the TGI in the assay on A549 NSCLC, in the assay with CAKI-1 renal, with HOP-62 NSCLC, in the assay on IGROV1 ovarian, in the assay on SR leukemia and with OVCAR-3 ovarian was greater than 100 µM in each case. Moreover, the TGI in the assay with MOLT-4 leukemia, in the assay on OVCAR-4 ovarian and in the assay on UO-31 renal was greater than 100 µM each time.
With `O=c1c(O)cc2c(O)oc3c(=O)c(O)c(O)c4c(O)oc1c2c43`, the TGI in the assay with A549 NSCLC, in the assay with CAKI-1 renal, in the assay with HOP-62 NSCLC, in the assay on IGROV1 ovarian, with SR leukemia and in the assay on OVCAR-3 ovarian was greater than 100 µM in each case. Moreover, the TGI is 72.2 µM in the assay with MOLT-4 leukemia, 33.3 µM with OVCAR-4 ovarian and greater than 100 µM in the assay on UO-31 renal.
As for `CC(C)OCc1cc(CN2CCN(c3cccc(Cl)c3)CC2)c(O)c2ncccc12`, the GI50 in the assay with A549 NSCLC was 512 nM; in the assay with CAKI-1 renal, 223 nM; in the assay on HOP-62 NSCLC it was 431 nM; with IGROV1 ovarian, 621 nM; with SR leukemia it was 403 nM; in the assay on OVCAR-3 ovarian it was 451 nM. The GI50 in the assay on PC-3 prostate is 525 nM; in the assay with MOLT-4 leukemia, 362 nM; in the assay on UO-31 renal it was 240 nM. The TGI in the assay on A549 NSCLC was determined as 11.9 µM; in the assay on CAKI-1 renal it was 11 µM; with HOP-62 NSCLC, 6.54 µM; with IGROV1 ovarian it was 16.6 µM; in the assay on SR leukemia it was 10.2 µM; in the assay on OVCAR-3 ovarian, 14.8 µM. The TGI in the assay with PC-3 prostate is 16.9 µM; in the assay on MOLT-4 leukemia it was 3.41 µM; in the assay on UO-31 renal, 1.38 µM.
Take `N#CC(/C(=N/NC(N)=S)C(=O)Nc1cccc(Cl)c1)c1ccccc1` (centres undefined): the TGI in the assay with A549 NSCLC, with CAKI-1 renal, in the assay on HOP-62 NSCLC, in the assay on IGROV1 ovarian, in the assay on SR leukemia and in the assay on OVCAR-3 ovarian was greater than 100 µM in each case. In addition, the TGI in the assay with MOLT-4 leukemia, in the assay with OVCAR-4 ovarian and with UO-31 renal was greater than 100 µM each time.
For `O=[N+]([O-])/C=C/c1cc2ccc3ccccc3c2[nH]1`, the TGI in the assay on A549 NSCLC is 4.88 µM; with CAKI-1 renal it was 6.15 µM; in the assay with HOP-62 NSCLC, 4.39 µM; in the assay with IGROV1 ovarian, 1.89 µM; in the assay on OVCAR-3 ovarian, 3.11 µM; with PC-3 prostate it was 3 µM. The TGI in the assay with MOLT-4 leukemia was greater than 100 µM; with OVCAR-4 ovarian, 4.95 µM; with UO-31 renal, 3.05 µM.
As for `COc1cc2c3c(n(CCCN4CCCNCC4)c(=O)c2cc1OC)-c1cc2c(cc1C3=O)OCO2`, the GI50 with A549 NSCLC was 322 nM; in the assay on CAKI-1 renal it was 120 nM; with HOP-62 NSCLC, 558 nM; with IGROV1 ovarian, 1150 nM; with OVCAR-3 ovarian, 2520 nM; in the assay with PC-3 prostate it was 1330 nM. For the same compound, the GI50 is 38.4 nM in the assay with MOLT-4 leukemia, 2910 nM with OVCAR-4 ovarian and 1330 nM in the assay on UO-31 renal. Also, the TGI stood at 6.95 µM in the assay on A549 NSCLC; 1.65 µM with CAKI-1 renal; 4.46 µM in the assay on HOP-62 NSCLC; 21.5 µM in the assay with IGROV1 ovarian; 7.66 µM in the assay with OVCAR-3 ovarian; 9.97 µM in the assay on PC-3 prostate. Also, the TGI stood at 50 µM in the assay with MOLT-4 leukemia, 11.1 µM with OVCAR-4 ovarian and 12.9 µM with UO-31 renal.
Regarding `O=c1[nH]c(F)nc2c1ncn2C1OC(CO)C(O)C1O` (centres undefined), the GI50 in the assay with A549 NSCLC, in the assay with HOP-62 NSCLC, with IGROV1 ovarian, with SR leukemia, in the assay with OVCAR-3 ovarian and with PC-3 prostate was greater than 100000 nM in each case. Besides, the GI50 with MOLT-4 leukemia and with UO-31 renal was greater than 100000 nM each time. Further, the TGI in the assay on A549 NSCLC, in the assay on HOP-62 NSCLC, with IGROV1 ovarian, in the assay with SR leukemia, in the assay on OVCAR-3 ovarian and in the assay on PC-3 prostate was greater than 100 µM each time. Besides, the TGI with MOLT-4 leukemia and with UO-31 renal was greater than 100 µM throughout.
